This note sets out measurements from US20250066369A1, “BICYCLIC PHTHALAZIN-1(2H)-ONE DERIVATIVES AND RELATED USES” (NodThera Limited, priority 2022, published 2025).

Counter-ions that a name gives are not always drawn.

The assay relates to IL-1β release upon NLRP3 activation in peripheral blood mononuclear cells (PBMC). Description: PBMC IC50 determination assay: inhibition of IL-1β release upon NLRP3 activation. The settings on record: PBMC, PBMC primed with LPS 3 h, compound 30 min, stimulated with ATP (5 mM) or nigericin (10 μM) 1 h; IL-1β by ELISA (Protocol A) or HTRF (Protocol B). It is filed as cell-based. On the procedure: PBMC IC50 determination assay. The compounds of the present disclosure were tested for their inhibitory activity against IL-1β release upon NLRP3 activation in peripheral blood mononuclear cells (PBMC).
Protocol A. PBMC were isolated from buffy coats by density gradient centrifugation on Histopaque-1077 (Sigma, cat no. 10771). Isolated cells were seeded into the wells of a 96-well plate and incubated for 3 h with lipopolysaccharide (LPS). Following medium exchange, the compounds of the present disclosure were added (a single compound per well) and the cells were incubated for 30 min. Next, the cells were stimulated either with ATP (5 mM) or nigericin (10 μM) for 1 h and the cell culture media from the wells were collected for further analysis.
The release of IL-1β into the media was determined by a quantitative detection of IL-1β in the media using an IL-1β enzyme-linked immunosorbent assay (ELISA) Ready-SET-Go!, eBioscience cat. No. 88-7261-88. Briefly, in a first step, high affinity binding plates (Corning, Costar 9018 or NUNC Maxisorp Cat No. 44-2404) were coated overnight at 4° C. with specific capture antibody included in the kit (anti-human IL-1β ref. 14-7018-68). Subsequently, plates were blocked with blocking buffer for 1 h at room temperature (rt) and after washing with a buffer (PBS with 0.05% Tween-20) incubated with protein standard and culture media. After 2 h of incubation at rt, plates were washed and incubated with biotinylated detection antibody included in the kit (anti-human IL-1β Biotin ref 33-7110-68) for 1 h at rt. Plates were washed and incubated with HRP-streptavidin for 30 min at rt and washed again. The signal was developed after addition of 3,3′,5,5′-tetramethylbenzidine-peroxidase (TMB) until colour appeared and the reaction was stopped by 2 M H2SO4. A microplate spectrophotometer (BioTek) was used to detect signals with 450 nm. The detection range of IL-1β ELISA was […].
Protocol B. PBMC were isolated from buffy coats by density gradient centrifugation on Histopaque-1077 (Sigma, cat no. 10771). Isolated cells were seeded into the wells (280,000 cells/well) of a 96-well plate and incubated for 3 h with lipopolysaccharide (LPS, 1 μg/mL diluted 1000× from a 1 mg/mL stock solution). The compounds of the present disclosure were added (a single compound per well) and the cells were incubated for 30 min. Next, the cells were stimulated with ATP (5 mM final concentration diluted 20× from a 100 mM stock solution) for 1 h and the cell culture media from the wells were collected for further analysis.
The release of IL-1β into the media was determined by quantitative detection of IL-1β in the media using HTRF®, CisBio cat. No. 62HIL1BPEH. Briefly, cell culture supernatant were dispensed directly into the assay plate containing antibodies labelled with the HTRF® donor and acceptor. A microplate spectrophotometer (BMG) was used to detect signals at 655 nm and 620 nm. The detection range of IL-1β HTRF® was 39-6500 μg/mL.
Background: An ELISA detects its analyte on a solid surface through an enzyme-linked reagent.
Usually IC50 stands for the concentration that gives 50% inhibition. Low readings indicate higher potency, high ones lower potency. In turn, `CCn1cc2c(=O)n(CC(=O)N[C@H]3CCCN4CCC[C@@H]34)nc(C(C)C)c2n1` (stereo in doubt) [Compound 7, N-[Cis-1,2,3,5,6,7,8,8a-octahydroindolizin-8-yl]-2-(2-ethyl-7-isopropyl-4-oxo-pyrazolo[3,4-d]pyridazin-5-yl) acetamide hydrochloride] registered an IC50 of 1000 to 3000 nM.
With `CC(C)c1nn(CC(=O)N[C@@H]2CCCN(C3CC3)C2)c(=O)c2c1cnn2C` [Compound 1, N-[(3R)-1-Cyclopropyl-3-piperidyl]-2-(4-isopropyl-1-methyl-7-oxo-pyrazolo[3,4-d]pyridazin-6-yl)acetamide] the figure was 3000 to 10000 nM; with `CC(C)c1nn(CC(=O)N[C@@H]2CCCN(C3CC3)C2)c(=O)c2cnn(C)c12` [Compound 2, N-[(3R)-1-Cyclopropyl-3-piperidyl]-2-(7-isopropyl-1-methyl-4-oxo-pyrazolo[3,4-d]pyridazin-5-yl)acetamide], 1000 to 3000 nM; with `CC(C)c1nn(CC(=O)N[C@@H]2CCCN(C3CC3)C2)c(=O)c2cn(C)nc12` [Compound 3, N-[(3R)-1-Cyclopropyl-3-piperidyl]-2-(7-isopropyl-2-methyl-4-oxo-pyrazolo[3,4-d]pyridazin-5-yl)acetamide], 3000 to 10000 nM.
In the case of `CCn1cc2c(=O)n(CC(=O)Nc3ncncc3F)nc(C(C)C)c2n1` [Compound 5, 2-(2-Ethyl-7-isopropyl-4-oxo-pyrazolo[3,4-d]pyridazin-5-yl)-N-(5-fluoropyrimidin-4-yl) acetamide], the IC50 lay within 1000 to 3000 nM.
The molecule `CCn1cc2c(=O)n(CC(=O)N[C@@H]3CCCN(C)C3)nc(C(C)C)c2n1` [Compound 6, 2-(2-Ethyl-7-isopropyl-4-oxo-pyrazolo[3,4-d]pyridazin-5-yl)-N-[(3R)-1-methyl-3-piperidyl]acetamide] displayed an IC50 of 10000 to 50000 nM.
As to `CCn1cc2c(=O)n(CC(=O)Nc3ncc(F)cn3)nc(C(C)C)c2n1` [Compound 8, 2-(2-Ethyl-7-isopropyl-4-oxo-pyrazolo[3,4-d]pyridazin-5-yl)-N-(5-fluoropyrimidin-2-yl)acetamide], the IC50 was in the range of 100 to 1000 nM.
In turn, `CC(C)c1nn(CC(=O)N[C@@H]2CCCN(C3CC3)C2)c(=O)c2nn(C)cc12` [Compound 9, N-[(3R)-1-Cyclopropyl-3-piperidyl]-2-(4-isopropyl-2-methyl-7-oxo-pyrazolo[3,4-d]pyridazin-6-yl)acetamide] returned an IC50 of 10000 to 50000 nM.
Molecule `CC(C)c1nn(CC(=O)N[C@@H]2CCCN(C3CC3)C2)c(=O)c2cc(Cl)sc12` [Compound 10, 2-(2-Chloro-7-isopropyl-4-oxo-thieno [2,3-d]pyridazin-5-yl)-N-[(3R)-1-cyclopropyl-3-piperidyl]acetamide] had a half-maximal inhibitory concentration (IC50) of 1000 to 3000 nM.
For the molecule `CC(C)c1nn(CC(=O)N[C@@H]2CCCN(C3CC3)C2)c(=O)c2sc(Cl)cc12` [Compound 11, 2-(2-Chloro-4-isopropyl-7-oxo-thieno[2,3-d]pyridazin-6-yl)-N-[(3R)-1-cyclopropyl-3-piperidyl]acetamide], the IC50 fell in the range of 1000 to 3000 nM.
The value for `CCc1cc2c(=O)n(CC(=O)Nc3ncc(F)cn3)nc(C(C)C)c2s1` [Compound 12, 2-(2-Ethyl-7-isopropyl-4-oxo-thieno[2,3-d]pyridazin-5-yl)-N-(5-fluoropyrimidin-2-yl)acetamide] was 100 to 1000 nM; that for `C=C(C)c1nn(CC(=O)N[C@@H]2CCCN(C3CC3)C2)c(=O)c2ncn(C)c12` [Compound 13, N-[(3R)-1-Cyclopropyl-3-piperidyl]-2-(7-isopropenyl-1-methyl-4-oxo-imidazo[4,5-d]pyridazin-5-yl)acetamide] was 10000 to 50000 nM; that for `CC(C)c1nn(CC(=O)N[C@@H]2CCCN(C3CC3)C2)c(=O)c2ncn(C)c12` [Compound 14, N-[(3R)-1-Cyclopropyl-3-piperidyl]-2-(7-isopropyl-1-methyl-4-oxo-imidazo[4,5-d]pyridazin-5-yl)acetamide] was 10000 to 50000 nM.
With `CC(C)c1nn(CC(=O)Nc2ncc(F)cn2)c(=O)c2cn(C(C)C)nc12` [Compound 15, 2-(2,7-Diisopropyl-4-oxo-pyrazolo[3,4-d]pyridazin-5-yl)-N-(5-fluoropyrimidin-2-yl)acetamide], the IC50 is 100 to 1000 nM.
